Test results reported in patent US9528090B2, “Differentiation of human embryonic stem cells” (Janssen Biotech, Inc., priority 2010, dated 2016).

Tested on: human embryonic stem cells line H1
Experiment: Definitive endoderm differentiation of H1 cells in FBS medium (GDF8/GSK3B inhibitor) with IGF or insulin: FACS and real-time PCR
Assay type: cell-based
Settings: in the presence of FBS, 10-100 ng/ml, day 4
Procedure: Cells of the human embryonic stem cells line H1 (p40-p52) were seeded as single cells at a density of 100000 cells/cm^2 on MATRIGEL® (1:30 dilution) (BD Biosciences; Cat #356231)-coated dishes in MEF-CM (mouse embryonic fibroblast conditioned media) supplemented with 16 ng/ml of FGF2 (Catalog#100-18B, PeproTech, NJ) and 10 μM of Y27632 (Rock inhibitor, Catalogue#Y0503, Sigma, Mo.). 72 hrs post seeding, cultures were differentiated into definitive endoderm (DE) as follows: • a. with MCDB-131 (Catalogue#10372-019, Invitrogen, CA) medium supplemented with 0.2% FBS (Catalogue#SH30070.03, Hyclone, UT), 0.0025 g/ml sodium bicarbonate (Catalogue #S3187, Sigma, Mo.), 1× GlutaMax™ (Catalogue #35050-079, Invitrogen, Ca) and 100 ng/ml GDF8 (Catalogue#120-00, PeproTech, NJ) plus 2.5 μM of the GSK3B inhibitor 14-Prop-2-en-1-yl-3,5,7,14,17,23,27-heptaazatetracyclo[19.3.1.1˜2,6˜0.1˜8,12˜]heptacosa-1(25),2(27),3,5,8(26),9,11,21,23-nonaen-16-one for one day, then • b. MCDB-131 medium supplemented with FBS, sodium bicarbonate, Glutamax, and 100 ng/ml GDF8 for an additional three days.
0.5% FBS was used for day 2 and 2% FBS was used for days 3-4. Besides regular FBS, heat treated FBS (Catalogue#F4135, Sigma, Mo.) and charcoal stripped treated FBS (Catalogue#F6765, Sigma, Mo.) were also tested. Some of the FBS treated cultures were also treated with various concentrations of IGF (10-100 ng/ml) or insulin (10-100 ng/ml).
At day 4, samples were collected for analysis by FACS and real-time PCR.

## insulin
  expression of the pluripotency marker NANOG: upregulated
  markers associated with definitive endoderm such as SOX17 and CCXR4: dose dependently down regulated
